Patent US12636253B2, “Modified release compositions of nafamostat and methods of using same” (Ensysce Biosciences Inc., priority 2021, dated 2026)
Where two headings read alike, the source gives them in different places.

Legend:
[1] = cited from earlier work
[2] = Blood hydromorphone after 1, 3, 6 or 10 pills of PF329 with or without nafamostat in rats; type: in vivo; settings: rats, 1, 3, 6 or 10 PF329 pills containing nafamostat (FIG. 5)
Source text: The rat experiments were repeated with a derivative of hydromorphone (referred to herein as PF329), which is another known pain medication. FIGS. 4 and 5 show the blood concentration of active hydromorphone (HM) after the administration of 1, 3, 6, or 10 pills, either without or with nafamostat.

[3] = Effect of nafamostat on plasma oxycodone after oral KC-8 in rats; type: in vivo; settings: nafamostat co-administered with an oxycodone or hydromorphone derivative
Experimental: The drug nafamostat mesylate was added to the formulations containing the KC-8 oxycodone-derivative. In the examples described herein, the terms “nafamostat mesylate” and “nafamostat” are used interchangeably.
Formulations containing both KC-8 and optionally nafamostat were administered orally to rats. The KC-8 dose was 5 mg/kg and the nafamostat concentration was 0, 0.1, 0.5, or 1 mg/kg. Plasma concentrations of active oxycodone were measured at various time intervals over 24 hours after administration.
In contrast, additional nafamostat reduced the maximum oxycodone concentration to a peak of about 0.75 ng/ml at about 5 hours. The error bars represent one standard deviation.
In particular, the rats received 50 mg/kg of KC-8 and 0, 1, 5, or 10 mg/kg of nafamostat. With zero nafamostat, blood plasma concentration experienced a maximum of about 22 ng/ml at about 2 hours, wherein the concentration rapidly descended thereafter. In alignment with the data of FIG. 2, higher concentrations of nafamostat reduced the peak concentration to about 3 ng/ml at about 8 hours.

SMILES: COc1ccc2c3c1O[C@H]1C(OC(=O)N(C)CC(C)(C)CNC(=O)[C@H](CCCNC(=N)N)NC(=O)CNC(=O)CC(=O)O)=CC[C@@]4(O)[C@@H](C2)N(C)CC[C@]314 [KC-8, N-1-[3-(oxycodone-6-enol-carbonyl-methyl-amino)-2,2-dimethyl-propylamine]-arginine-glycine-malonic acid]
- safety and tolerability ([1]; previous SAD study, doses of up to 200 mg KC-8 (80 mg oxycodone)): safe and well tolerated

SMILES: N=C(N)c1ccc2cc(OC(=O)c3ccc(N=C(N)N)cc3)ccc2c1 [nafamostat, 6-carbamimidoylnaphthalen-2-yl 4-(diaminomethyleneamino)benzoate]
- safety and tolerability ([1]; 200 mg nafamostat, healthy volunteer SAD data): safe and well tolerated
- change of hydromorphone blood concentration on administering more pills [2]: little increase
- effect on maximum concentration of active drug in blood plasma [3]: significantly reduced the maximum concentration of active drug in blood plasma
